Data published in US5453444A, “Method to mitigate or eliminate weight loss” (Otsuka Pharmaceutical Co., Ltd., priority 1994, dated 1995).

Key:
IL-6 = IL-6 dependent proliferation of B-9 cells (3H-thymidine incorporation); format: cell-based; details: for cpm of 3H-thymidine incorporation, B-9 cells: Table 5; for proliferation of B-9 cells in response to IL-6: result in words; for cpm of 3H-thymidine, B-9 cells: Table 3
Experimental: A standard proliferation assay, Strassmann et al., J. Immunol., 147:1279-1285 (1991), was conducted using 96 well plates The medium used was RPMI with 10% fetal calf serum B-9 cells were added and were cultured for 3 days. The extent of proliferation of B-9 cells was determined by the incorporation of radioactive thymidine as described in Strassmann et al., J. Clin. Invest., 89, pp. 1681-84 (May 1992). […] (See Strassmann et al., J. Clin. Invest., 89, pp. 1681-84 (May 1992), incorporated herein by reference.)
The same procedures set forth in Example 5 was followed except that a different sulfate-containing compound, Pentosan polysulfate, was used.
The same procedure set forth in Example 5 was followed except in this example, Dextran sulfate and Dextran, were used instead of Suramin.

IL-6 receptor = test: Radioreceptor assay: binding of 125I-IL-6 to U266 cells; parameters: species or system human
Experimental: This experiment analyzed whether suramin inhibits IL-6 bioactivity by interfering with binding to the IL-6 receptor. Into eighteen test tubes was placed U266 indicator cells (obtained from ATCC), a binding buffer, made up of RPMI medium, 0.1 mg BSA and […] Hepes, and 100,000 cpm (0.8 ng) of ^125 I-IL-6. The tubes were divided into six groups of three tubes each and received suramin as follows: group 1 had 300 uM suramin; group 2 had 100 uM suramin; group 3 had 30 uM suramin; group 4 had 10 uM suramin; and group 5 had no suramin, but only medium (control for maximal binding). In addition, group 6 received excess unlabeled IL-6 without suramin for use in determining the background of binding in this assay.
After 90 minutes of incubation at 4° C. and the centrifugation of cells on oil (a standard radioreceptor assay) Strassmann, J. Immunol., 147:1279-1289 (1991), the amount of radioactivity bound to the cells was determined. […] Also, the addition of increasing amounts of suramin prevented the binding of radioactive IL-6 to U266 human myeloma indicator cells in vitro as reflected in the results set forth in FIG. 6.
The same procedure set forth in Example 6 was followed, except that Pentosan polysulfate was used instead of Suramin.

| Substance | cpm of 3H-thymidine incorporation, B-9 cells (IL-6; compound 30 μM, IL-6 3 pg/ml) [cpm] | cpm of 3H-thymidine incorporation, B-9 cells (IL-6; compound 30 μM, IL-6 10 pg/ml) [cpm] | cpm of 3H-thymidine incorporation, B-9 cells (IL-6; compound 30 μM, IL-6 30 pg/ml) [cpm] | cpm of 3H-thymidine incorporation, B-9 cells (IL-6; compound 100 μM, IL-6 3 pg/ml) [cpm] | cpm of 3H-thymidine incorporation, B-9 cells (IL-6; compound 100 μM, IL-6 10 pg/ml) [cpm] | cpm of 3H-thymidine incorporation, B-9 cells (IL-6; compound 100 μM, IL-6 30 pg/ml) [cpm] | cpm of 3H-thymidine incorporation, B-9 cells (IL-6; compound 300 μM, IL-6 3 pg/ml) [cpm] | cpm of 3H-thymidine incorporation, B-9 cells (IL-6; compound 300 μM, IL-6 10 pg/ml) [cpm] | cpm of 3H-thymidine incorporation, B-9 cells (IL-6; compound 300 μM, IL-6 30 pg/ml) [cpm] | proliferation of B-9 cells in response to IL-6 (IL-6) | also measured |
| --- | --- | --- | --- | --- | --- | --- | --- | --- | --- | --- | --- |
| Dextran | 24007 | 143003 | 231856 | 29577 | 136191 | 230321 | 27015 | 140903 | 245701 | did not prevent the proliferation of B-9 cells in response to IL-6 |  |
| Dextran sulfate | 7603 | 68066 | 204155 | 8075 | 31678 | 150233 | 2461 | 16573 | 112835 | prevented the proliferation of B-9 cells in response to IL-6 |  |
| Pentosan polysulfate |  |  |  |  |  |  |  |  |  | prevented the proliferation of B-9 cells | cpm 125I-IL-6 bound to U266 cells (IL-6 receptor; 3 μM): 3000 cpm; cpm 125I-IL-6 bound to U266 cells (IL-6 receptor; 30 μM): 2575 cpm; cpm 125I-IL-6 bound to U266 cells (IL-6 receptor; 300 μM): 2003 cpm; binding of radioactive IL-6 to U266 cells (IL-6 receptor; 90 minutes at 4° C., increasing amounts of compound): inhibited the binding of radioactive IL-6 to U266 human myeloma cells; cpm of 3H-thymidine, B-9 cells (IL-6; compound 300 μM, IL-6 added 1 pg/ml): 1567 cpm; cpm of 3H-thymidine, B-9 cells (IL-6; compound 300 μM, IL-6 added 3 pg/ml): 2648 cpm; cpm of 3H-thymidine, B-9 cells (IL-6; compound 300 μM, IL-6 added 10 pg/ml): 11456 cpm; cpm of 3H-thymidine, B-9 cells (IL-6; compound 300 μM, IL-6 added 30 pg/ml): 60287 cpm; cpm of 3H-thymidine, B-9 cells (IL-6; compound 1000 μM, IL-6 added 1 pg/ml): 795 cpm; cpm of 3H-thymidine, B-9 cells (IL-6; compound 1000 μM, IL-6 added 3 pg/ml): 1062 cpm; cpm of 3H-thymidine, B-9 cells (IL-6; compound 1000 μM, IL-6 added 10 pg/ml): 3586 cpm; cpm of 3H-thymidine, B-9 cells (IL-6; compound 1000 μM, IL-6 added 30 pg/ml): 26727 cpm |
| hIL-6: excess unlabeled IL-6 used for determining the background of binding in the radioreceptor assay |  |  |  |  |  |  |  |  |  |  | cpm 125I-IL-6 bound to U266 cells (IL-6 receptor; 270 ng/ml unlabeled competitor (background of binding)): 1416 cpm |
